Experimental data reported in patent US20170209413A1, “USE OF ASPARAGUSIC ACID AND DERIVATIVES THEREOF TO TREAT SYMPTOMS AND DISORDERS OF NEUROLOGICAL DISEASE” (priority 2016, published 2017).

Tests used:
[1] = system: shaking from Parkinson disease; experiment: hand writing skill test for relief of the shaking from Parkinson disease in one patient; format: in vivo, human
Experimental: A patient diagnosed with Parkinson's disease and in need of treatment by the methods disclosed herein was administered compositions comprising the compounds disclosed herein. The patient had been diagnosis with Parkinson's disease by two medical doctors, the family doctor and a neurologist. They had taken L-Dopa for over a year. The patient informed their doctors that they were no longer taking L-Dopa. They took nothing for their Parkinson's Disease for almost a year before beginning to take asparagusic acid.
The test for relief of the shaking from Parkinson disease was the patient's hand writing skill. Prior to treatment with asparagusic acid the patient could not write their name. […] Normally the ability to write was diminished within 12 hours, but their varied.
The asparagus top third was cut from the stalk and weighed. 50 to 100 grams was used per treatment. The tops were steamed for a short period of time. This was typically done by placing the asparagus tops in a pie plate and covered. No water was added. After a short heating period, for example heating in a microwave for 44 seconds on high, the asparagus is “self” steamed from water in the plant and may substantially help in the formation of asparagusic acid from asparaptine. […] Excess heating will decompose asparagusic acid and will likely form a dihydro byproduct by splitting the disulfide linkage.
A preparation as described above was taken at least two hours after eating. The asparagus was consumed immediately after heating with salt and taken with simple non-caffeine liquids such as water and white wine. No further food was consumed for at least an hour. […] One exception was found. […] It is noted that raw eggs contain many sulfur compounds.

[2] = boiling for 30 minutes; rearranges to 1,2,3-trithiane-5-carboxylic acid and 1,2-dithiacylopentene; cited from earlier work

Row | SMILES | effect on shaking, lipoic acid ([1]; 250 mg tablet, same manner in regards to food consumption as Example 1) | time until ability to write was diminished ([1]; one Parkinson's patient, after treatment, varied) | relief of the shaking from Parkinson disease (patient's hand writing skill) ([1]; one Parkinson's patient, 50 to 100 grams asparagus tops, steamed a short time (microwave 44 seconds), taken at least two hours after eating, no food for at least an hour) | stability during cooking [2]
1 | O=C(O)CCCC[C@@H]1CCSS1 (racemic) [lipoic acid, reference compound] | no effect | – | – | –
2 | O=C(O)C1CSSC1 [asparagusic acid, 1,2-dithiolane-4-carboxylic acid] | – | ≤ 12 h | could easily write their name in a flowing easy manner | not vary stable
